Assay results: patent US7572770B2, “Use of an interleukin 1 receptor antagonist and/or pyrrolidinedithiocarbamate for the treatment or prophylaxis of type 2 diabetes” (University of Zurich, priority 2002, dated 2009)

How the values were obtained:
[1] = target: T1, type II IL-1R (Homo sapiens, UniProt P27930); conditions: read-out: Kd, binding to type II IL-1R; cited from earlier work
T1 sequence (P27930 14-398): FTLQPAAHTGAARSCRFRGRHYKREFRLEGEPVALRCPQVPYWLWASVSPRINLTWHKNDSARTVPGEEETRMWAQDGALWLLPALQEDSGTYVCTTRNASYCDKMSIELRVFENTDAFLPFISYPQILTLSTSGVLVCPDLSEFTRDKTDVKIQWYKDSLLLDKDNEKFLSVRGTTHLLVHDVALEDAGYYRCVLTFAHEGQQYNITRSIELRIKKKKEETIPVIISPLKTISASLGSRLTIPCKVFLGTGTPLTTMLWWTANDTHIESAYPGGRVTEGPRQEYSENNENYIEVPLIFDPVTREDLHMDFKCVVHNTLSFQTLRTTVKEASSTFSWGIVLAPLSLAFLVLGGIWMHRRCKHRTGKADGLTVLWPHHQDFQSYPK

[2] = system: IL-1Ra; experiment: IL-1Ra expression and release in human islets; format: cell-based; conditions: for IL-1Ra released into the culture medium and IL-1Ra mRNA: 10 to 500 nM leptin
Protocol: Islet isolation and cell culture. Islets were isolated from pancreases of ten organ donors at the Department of Surgery, University of Geneva Medical Center, as described (32-34). The islet purity was >95%, as judged by dithizone staining (if this degree of purity was not primarily achieved by routine isolation, islets were handpicked). […] For long-term in vitro studies, the islets were cultured on extracellular matrix-coated plates derived from bovine corneal endothelial cells (Novamed Ltd., Jerusalem, Israel), allowing the cells to attach to the dishes and spread, preserving their functional integrity (7;35). Islets were cultured in CMRL 1066 medium containing 100 U/ml penicillin, 100 μg/ml streptomycin and 10% fetal calf serum (Invitrogen Corporation, Paisley, U.K.), hereafter referred to as culture medium. Two days after plating, when most islets were attached and began to flatten, the medium was changed to culture medium containing 5.5, 11.1 or 33.3 mM glucose. In some experiments, islets were additionally cultured with 5, 10 or 500 nM rh leptin (PeproTech, London, UK), 500 ng/ml rh IL-1Ra (R&D Systems Inc., Minneapolis, Minn.) or 50 nM small interfering RNA (siRNA) as described below.
RNA interference. RNAs of 21 nucleotides, designed to target human IL-1Ra (5′AUCUGCAGAGGCCUCCGCAtt3′/5′UGCGGAGGCCUCUGCAGAUtt3′) and scrambled siRNA were synthesized by Ambion (Austin, Tex.). siRNAs were transfected using SiPortAmine™ according to the manufacturer's instructions (Ambion).
Detection of IL-1Ra and IL-1β expressing cells. Pancreases from routine necropsies were immersion-fixed in formalin, followed by paraffin embedding. In parallel, isolated human were cultured in a suspension for 48 hours and exposed to 10 nM leptin or 33.3 mM glucose, islets were fixed in Bouin solution for 15 min, resuspended in 40 μl of 2% melted agarose in PBS (40° C.), followed by rapid centrifugation and paraffin embedding. Sections were deparaffinized, rehydrated and then incubated in methanol for 4 min. Human islets cultured on extracellular matrix for 4 days were washed in PBS, fixed in 4% paraformaldehyde (30 min, room temperature) followed by permeabilization with 0.5% triton X-100 (4 min, room temperature). Pancreas and islet sections and cultured cells were double-labeled for IL-1Ra or IL-1β and insulin, CD68, glucagon or somatostatin by 1 h of exposure to 10% bovine serum albumin followed by incubation (1 h, 37° C.) with biotinylated goat anti-IL-1Ra or mouse anti-IL-1β antibodies (R&D Systems Inc.). Detection was performed using cy3-(Jackson, ImMunoResearch Laboratories, West Grove, Pa.) or cy2-(Transduction Lab., Lexington, Ky.) conjugated streptavidin. […]

Substance	Kd [1] [nM]	IL-1Ra expression in β-cells (double immunostaining) ([2]; 10 nM leptin, 48 hours)	IL-1Ra released into the culture medium and IL-1Ra mRNA ([2]; 15 hours)	IL-1Ra released into the culture medium and IL-1Ra mRNA ([2]; 48 hours)	IL-1Ra protein (Western blot) ([2]; leptin, 15-hour exposure)
Interleukin 1 receptor antagonist [IL-1Ra]	7	–	–	–	–
leptin: rh leptin (PeproTech); protein encoded by the ob gene	–	decreased IL-1Ra expression in most β-cells	increased	marked decrease	decreased IL-1Ra already after a 15-hour exposure
